Data as given in ChEMBL document CHEMBL1129154, “()-SCH 57939: synthesis and pharmacological properties of a potent, metabolically stable cholesterol absorption inhibitor” (1996).

Columns and labels:
Format in all cases: functional, Cricetulus griseus
[1] = test system: Cricetinae gen. sp.; experiment: Compound was evaluated for the percent reduction in liver cholesterol ester levels in cholesterol fed hamster model at 1 mg/kg
[2] = test system: Cricetinae gen. sp.; experiment: Compound was evaluated for the percent reduction in liver cholesterol ester levels in cholesterol fed hamster model at 10 mg/kg
[3] = test system: Cricetinae gen. sp.; experiment: Compound was evaluated for the percent reduction in liver cholesterol ester levels in cholesterol fed hamster model at 10 mpk
[4] = test system: Cricetinae gen. sp.; experiment: Compound was evaluated in vivo for the cholesterol lowering activity in hamster model
[5] = test system: Cricetinae gen. sp.; experiment: Compound was evaluated for the percent reduction in liver cholesterol ester levels in cholesterol fed hamster model at 0.3 mg/kg
[6] = test system: Cricetinae gen. sp.; experiment: Compound was evaluated for the percent reduction in liver cholesterol ester levels in cholesterol fed hamster model at […]

`COc1ccc([C@@H]2[C@@H]([C@H](O)COc3ccc(F)cc3)C(=O)N2c2ccccc2)cc1` (racemic) gave a L/CE ([1]; 1 mg/kg) of -57%.

Work on `COc1ccc([C@@H]2N(c3ccccc3)C(=O)[C@]2(C)[C@@H](O)COc2ccc(F)cc2)cc1` (racemic) yielded a L/CE [2] of -48%.

Molecule `O=C1[C@H]([C@@H](O)COc2ccc(F)cc2)[C@H](c2ccc(O)cc2)N1c1ccc(F)cc1` (racemic) has a L/CE [3] of -39%.

`O=C1[C@H]([C@H](O)COc2ccc(F)cc2)[C@@H](c2ccc(O)cc2)N1c1ccc(F)cc1` (racemic) was tested, and the ED50 [4] was 0.7 MPK and the L/CE [1] was -38%.

`O=C1[C@H]([C@H](O)COc2ccc(F)cc2)[C@@H](c2ccc(O)cc2)N1c1ccc(F)cc1` was tested, and the ED50 [4] was 0.27 MPK and the L/CE [5] was -70%.

`O=C1[C@@H]([C@H](O)COc2ccc(F)cc2)[C@@H](c2ccc(O)cc2)N1c1ccc(F)cc1` gave a L/CE [6] of 0%.

`COc1ccc([C@@H]2[C@@H]([C@H](O)COc3ccc(F)cc3)C(=O)N2c2ccccc2)cc1` gave an ED50 ([4]; Cricetinae gen. sp., read-out: ED50) of 0.3 mg/kg and a L/CE ([1]; 1 mg/kg) of -84%.
